From patent US9662372B2 (priority 2013, dated 2017)
Where no end group is shown, it is not given here. [ ]: non-standard residue; d: D form. βAla = NCCC(=O)O

Each compound was assayed on C. difficile ATCC 9689 (assay: not given). Settings: not given.
Assay type: cell-based, Clostridium difficile

Compound | Toxin | Average dye reduction rate of CHO-k1 in the presence of C. difficile supernatant | Corrected dye reduction rate
His-Lys | 6993 ng/mL |  | 
O=C[C@H](O)[C@@H](O)[C@H](O)[C@H](O)CO [D-glucose] |  | 57.19 | 54.6
[βAla]-His | 8265 ng/mL |  | 
Gly-Pro | 3798 ng/mL |  | 

What follows are compounds tested on C. difficile ATCC 9689 (assay: Bacterial mass in wells of PM panels (OD 750 nm)). Settings: OD difference with vs without C. difficile, 72 h; carbon source (PM01/PM02).
Assay type: cell-based, Clostridium difficile

Compound | C. difficile Mass
C[C@H](O)[C@@H](N)C(=O)O [D-Threonine] | 0.0923 OD (750 nm)
O=C(O)CC(Br)C(=O)O (stereo not shown) [Bromosuccinic Acid] | 0.0335 OD (750 nm)
C[C@H](N)C(=O)O [L-Alanine] | 0.113 OD (750 nm)
CCCCCCCCCC(=O)O [Capric acid] | 0.014 OD (750 nm)
CC(C)[C@H](N)C(=O)O [L-Valine] | 0.0917 OD (750 nm)
O=C(O)/C=C/C(=O)O [Fumaric Acid] | 0.018 OD (750 nm)
Dextrin | 0.0478 OD (750 nm)
N[C@@H](CCO)C(=O)O [L-Homoserine] | 0.0071 OD (750 nm)
OCc1ccccc1O[C@@H]1O[C@H](CO)[C@@H](O)[C@H](O)[C@H]1O [Salicin] | 0.1291 OD (750 nm)
C[C@@H](O)[C@H](N)C(=O)O [L-Threonine] | 0.0643 OD (750 nm)
O=C(CO)[C@@H](O)[C@@H](O)[C@H](O)CO [D-Tagatose] | 0.138 OD (750 nm)
OC[C@H]1O[C@@H](Oc2ccc(O)cc2)[C@H](O)[C@@H](O)[C@@H]1O [Arbutin] | 0.128 OD (750 nm)
N[C@H](CO)C(=O)O [D-Serine] | 0.1114 OD (750 nm)
CC(=O)N[C@H]1C(O)O[C@H](CO)[C@@H](O)[C@@H]1O (stereo partly drawn) [N-Acetyl-D-Glucosamine] | 0.0955 OD (750 nm)
CCCCCC(=O)O [Caproic acid] | 0.0568 OD (750 nm)
N[C@@H](CO)C(=O)O [L-Serine] | 0.0635 OD (750 nm)
CC(=O)N[C@H]1[C@H]([C@H](O)[C@H](O)CO)OC(O)(C(=O)O)C[C@@H]1O (stereo partly shown) [N-Acetyl-Neuraminic acid] | 0.1163 OD (750 nm)
O=C[C@@H](O)[C@@H](O)[C@H](O)CO [D-Lyxose] | 0.1508 OD (750 nm)
CSCC[C@H](N)C(=O)O [L-Methionine] | 0.0818 OD (750 nm)
CC(=O)C(=O)O [Pyruvic Acid] | 0.093 OD (750 nm)
N[C@H](CC(=O)O)C(=O)O [D-Aspartic acid] | 0.0269 OD (750 nm)
CC(C)C[C@H](N)C(=O)O [L-Leucine] | 0.089 OD (750 nm)
N[C@@H](Cc1ccccc1)C(=O)O [L-Phenylalanine] | 0.0714 OD (750 nm)
NCCc1ccccc1 [β-Phenylethylamine] | 0.0477 OD (750 nm)
O=C(CO)[C@@H](O)[C@H](O)[C@H](O)CO [D-Fructose] | 0.1435 OD (750 nm)
C[C@@H](N)C(=O)O [D-Alanine] | 0.1233 OD (750 nm)

Same assay, conditions: OD difference with vs without C. difficile, 72 h; nitrogen source (PM03/06/07/08)

Compound | C. difficile Mass
NC(=O)C[C@@H](N)C(=O)O [D-Asparagine] | 0.0321 OD (750 nm)
His-Lys | 0.0453 OD (750 nm)
CCCCCN [N-Amylamine] | 0.0433 OD (750 nm)
N[C@@H](Cc1ccc(O)cc1)C(=O)O [L-Tyrosine] | 0.1528 OD (750 nm)
[βAla]-His | 0.0473 OD (750 nm)
NC(=O)NCCC[C@H](N)C(=O)O [L-Citrulline] | 0.0377 OD (750 nm)
O=c1ccn([C@@H]2O[C@H](CO)[C@@H](O)[C@H]2O)c(=O)[nH]1 [Uridine] | 0.0373 OD (750 nm)
Gly-Pro | 0.0414 OD (750 nm)
CC(=O)N[C@H]1C(O)O[C@H](CO)[C@H](O)[C@@H]1O (stereo partly drawn) [N-Acetyl-D-Galactosamine] | 0.0355 OD (750 nm)
NC(=O)CC[C@H](N)C(=O)O [L-Glutamine] | 0.0339 OD (750 nm)
N=C(N)NCCC[C@H](N)C(=O)O [L-Arginine] | 0.046 OD (750 nm)
NCCc1ccc(O)cc1 [Tyramine] | 0.0442 OD (750 nm)
Nc1ncnc2c1ncn2[C@@H]1O[C@H](CO)[C@@H](O)[C@H]1O [Adenosine] | 0.0472 OD (750 nm)
NC(=O)[C@@H](O)[C@@H](O)[C@H](O)[C@@H](O)C=O [Glucuronamide] | 0.0369 OD (750 nm)
CC(C)[C@H](N)C(=O)O [L-Valine] | 0.0431 OD (750 nm)
Cc1cn([C@H]2C[C@H](O)[C@@H](CO)O2)c(=O)[nH]c1=O [Thymidine] | 0.0384 OD (750 nm)
NCCCCN [Putrescine] | 0.0339 OD (750 nm)
NCCCC[C@H](N)C(=O)O [L-Lysine] | 0.0436 OD (750 nm)
CC(N)=O [Acetamide] | 0.0458 OD (750 nm)
O=c1cc[nH]c(=O)[nH]1 [Uracil] | 0.0375 OD (750 nm)
N[C@@H](CCO)C(=O)O [L-Homoserine] | 0.0293 OD (750 nm)
NCCN [Ethylenediamine] | 0.0369 OD (750 nm)
Nc1cc[nH]c(=O)n1 [Cytosine] | 0.0361 OD (750 nm)
NCCCC(=O)O [γ-Aminobutyric acid] | 0.0375 OD (750 nm)
N[C@@H](Cc1c[nH]c2ccccc12)C(=O)O [L-Tryptophan] | 0.0299 OD (750 nm)
CC[C@H](C)[C@H](N)C(=O)O [L-Isoleucine] | 0.0563 OD (750 nm)

Compound | C. difficile Mass
N[C@H]1C(O)O[C@H](CO)[C@@H](O)[C@@H]1O (stereo partly drawn) [D-Glucosamine] | 0.0447 OD (750 nm)
Nc1ccn([C@@H]2O[C@H](CO)[C@@H](O)[C@H]2O)c(=O)n1 [Cytidine] | 0.0456 OD (750 nm)
Nc1nc2c(ncn2[C@@H]2O[C@H](CO)[C@@H](O)[C@H]2O)c(=O)[nH]1 [Guanosine] | 0.0092 OD (750 nm)
N[C@H](CO)C(=O)O [D-Serine] | 0.0465 OD (750 nm)
NC(=O)NC(N)=O [Biuret] | 0.0394 OD (750 nm)
N[C@@H](Cc1c[nH]cn1)C(=O)O [L-Histidine] | 0.0361 OD (750 nm)
N[C@H]1C(O)O[C@H](CO)[C@H](O)[C@@H]1O (stereo partly drawn) [D-Galactosamine] | 0.0374 OD (750 nm)
N=C(N)NCCCCN [Agmatine] | 0.043 OD (750 nm)
Cc1c[nH]c(=O)[nH]c1=O [Thymine] | 0.0338 OD (750 nm)
CN [Methylamine] | 0.0398 OD (750 nm)
NCCc1c[nH]cn1 [Histamine] | 0.0424 OD (750 nm)
NC=O [Formamide] | 0.0418 OD (750 nm)
CCN [Ethylamine] | 0.0401 OD (750 nm)
N[C@@H](CS)C(=O)O [L-Cysteine] | 0.0394 OD (750 nm)
N[C@H](CC(=O)O)C(=O)O [D-Aspartic acid] | 0.0109 OD (750 nm)
NCCC[C@H](N)C(=O)O [L-Ornithine] | 0.0369 OD (750 nm)
CCCCCCC(N)C(=O)O (racemic) [D,L-α-Amino-Caprylic acid] | 0.0484 OD (750 nm)
N[C@@H]1C(O)O[C@H](CO)[C@@H](O)[C@@H]1O (stereo partly drawn) [D-Mannosamine] | 0.0364 OD (750 nm)
NCCc1ccccc1 [β-Phenylethylamine] | 0.0448 OD (750 nm)
O=c1[nH]c(=O)c2[nH]cnc2[nH]1 [Xanthine] | 0.2978 OD (750 nm)
O=c1[nH]c(=O)c2ncn([C@@H]3O[C@H](CO)[C@@H](O)[C@H]3O)c2[nH]1 [Xanthosine] | 0.0516 OD (750 nm)
NCCCC[C@@H](N)C(=O)O [D-Lysine] | 0.0489 OD (750 nm)
NC(=O)NC1NC(=O)NC1=O (stereo not shown) [Allantoin] | 0.0425 OD (750 nm)
C[C@@H](N)C(=O)O [D-Alanine] | 0.038 OD (750 nm)
O=c1[nH]c(=O)c2[nH]c(=O)[nH]c2[nH]1 [Uric acid] | 0.0556 OD (750 nm)

Same assay, conditions: OD difference with vs without C. difficile, 72 h; nutritional stimulant panel PM05

Compound | C. difficile Mass
Nc1ncnc2c1ncn2[C@@H]1O[C@H](CO)[C@@H](O)[C@H]1O [Adenosine] | 0.0414 OD (750 nm)

Same assay, conditions: OD difference with vs without C. difficile, 72 h; phosphorus/sulfur source panel PM04

Compound | C. difficile Mass
NCCS(=O)(=O)O [Taurine] | 0.0505 OD (750 nm)
Nc1ccc(S(=O)(=O)O)cc1 [p-Aminobenzene Sulfonic acid] | 0.0485 OD (750 nm)
O=S1(=O)CCCC1 [Tetramethylene Sulfone] | 0.0442 OD (750 nm)
O=S(=O)(O)CCO [2-Hydroxyethane Sulfonic acid] | 0.0428 OD (750 nm)
Nc1ncnc2c1ncn2[C@@H]1O[C@H](COP(=O)(O)O)[C@@H](O)[C@H]1O [Adenosine 5′-Monophosphate] | 0.0495 OD (750 nm)
CCCCS(=O)(=O)O [Butane Sulfonic acid] | 0.0398 OD (750 nm)
NCCS(=O)O [Hypotaurine] | 0.0438 OD (750 nm)
C[C@H](CCC(=O)NCCS(=O)(=O)O)[C@H]1CC[C@H]2[C@@H]3[C@H](O)C[C@@H]4C[C@H](O)CC[C@]4(C)[C@H]3C[C@H](O)[C@]12C [Taurocholic acid] | 0.0536 OD (750 nm)
